Data published in patent EP4740942A1, “AROMATIC AMIDE DERIVATIVE AND USE THEREOF” (HUAJIAN FUTURE (CHENGDU) TECHNOLOGY CO., LTD., priority 2023, dated 2025).

What was measured:
[1] = test system: colorectal cancer cells SW480; assay: 3D model proliferation inhibitory activity test against colorectal cancer cells SW480 (CellTiter-3D-Glo); type: cell-based; details: Homo sapiens, low-adhesion 96-well U-bottom plate
Experimental: (§1) Cell proliferation activity was detected by a CellTiter-3D-Glo reagent method. A specific method was as follows: SW480 cells in logarithmic growth period were digested, diluted to a suitable cell density with DMEM complete medium containing 10% FBS and 1% PS, inoculated into a low-adhesion 96-well U-bottom plate, and cultured in 5% CO2; and then a series of to-be-tested compounds with concentration gradient was added, and incubated in a 5% CO2 incubator. After finishing the incubation, the cells were lysed and detected by using the CellTiter-3D-Glo reagent. Chemiluminescence values were measured by a microplate reader, and data were fitted by Graphpad Prism software, so as to calculate IC50 values of tested substances.

[2] = test system: pancreatic cancer cells MIA PaCa-2; assay: Pharmacodynamic experiment of subcutaneous xenograft tumor model of pancreatic cancer cells MIA PaCa-2; type: in vivo, BALB/c nude mice; details: 0.2 mg/kg, QD × 15 days, oral gavage; for diets, weights and activities of the animals during the drug administration / Tumor inhibition rate: BALB/c nude mice; for Tumor inhibition rate: MIA PaCa-2 subcutaneous xenograft; for inhibitory effects on the growth of subcutaneously transplanted tumors of pancreatic cancer MIA PaCa-2 cells in the nude mice: result in words
[3] = test system: colorectal cancer cells HCT116; assay: Proliferation inhibitory activity test against colorectal cancer cells HCT116 (CellTiter-3D-Glo); type: cell-based; details: Homo sapiens, HCT-116, low-adhesion 96-well U-bottom plate
Experimental: Cell proliferation activity was detected by a CellTiter-3D-Glo reagent method. A testing process was as follows: HCT116 cells in logarithmic growth period were digested, diluted to a suitable cell density with McCoy's 5A complete medium containing 10% FBS and 1% PS, inoculated into a low-adhesion 96-well U-bottom plate, and cultured in 5% CO2; and then a series of to-be-tested compounds with concentration gradient was added, and the system was incubated in a 5% CO2 incubator. After finishing the incubation, the cells were lysed and detected by using the CellTiter-3D-Glo reagent. Chemiluminescence values were measured by a microplate reader, and data were fitted by Graphpad Prism software, so as to calculate IC50 values of tested substances. Test results can be seen in the following table: wherein, "A" represents inhibitory activity IC50 < 20 nM, "B" represents inhibitory activity 20 nM ≤ IC50 < 50 nM, and "C" represents inhibitory activity IC50 ≥ 50 nM.

[4] = test system: colorectal cancer cells SW480; assay: Pharmacodynamic experiment of subcutaneous xenograft tumor model of colorectal cancer cells SW480; type: in vivo, BALB/c nude mice; details: 0.2 mg/kg, QD × 18 days, oral gavage
Experimental: Animal species and number: BALB/c nude mice, 6 mice in each group.
Experimental samples: compound 4-1 and compound Ref A-1.
Experimental groups: blank solvent control group, compound 4-1 (0.2 mg/kg, QD × 18 days) and compound Ref A-1 (0.2 mg/kg, QD × 18 days).
Establishment of animal model: SW480 tumor cells in logarithmic growth period were cultured and collected in vitro, and inoculated subcutaneously in right backs of the Balb/c Nude mice, and when tumors grew to about 180-250 mm^3, the tumor-bearing mice were randomly divided into groups. Subsequently, each group of animals were administered with drugs, and the first day of drug administration was defined as the 1st day of the experiment.
Drug administration route and frequency: oral gavage, once per day, for 18 consecutive days.
General state observation: the mice were observed once per day, and observation contents included, but were not limited to, locally administered parts, physical signs, general behaviors, mental states, death and other situations, and other abnormal manifestations of the animals.
Tumor volume calculation: V = 0.5 a × b^2, wherein a was a long diameter of tumor and b was a short diameter of tumor. Tumor growth inhibition rates TGI (%) were used to evaluate anti-tumor effects of the compounds. […]

[5] = In-vivo pharmacokinetic study in SD rats; details: 0.2 mg/kg
Experimental: Pharmacokinetic study on compound 4-1 in SD rats was conducted. 12 SD rats (half male and half female) were selected and randomly divided into 2 groups (3 rats/sex/group) according to their body weights, and the groups were recorded as a group 1 and a group 2, which were administered with 0.2 mg/kg compound 4-1 by intravenous and oral gavage route respectively. All the experimental animals were administered with a single dose on Day 0, and a drug administration moment was recorded as 0 hour. About 0.25 mL of whole blood (EDTA-K2) was respectively collected from all the experimental animals in group 1 before the drug administration, at 5 minutes, 15 minutes, 30 minutes, 1 hour, 2 hours, 4 hours, 6 hours, 8 hours and 24 hours after finishing the drug administration to prepare plasma; and about 0.25 mL of whole blood (EDTA-K2) was respectively collected from all the experimental animals in group 2 before the drug administration, at 15 minutes, 30 minutes, 1 hour, 2 hours, 4 hours, 6 hours, 8 hours and 24 hours after finishing the drug administration to prepare plasma. The compounds in the plasma samples were quantitatively determined by a LC-MS/MS method, and pharmacokinetic parameters were analyzed and calculated by non-compartmental analysis.

[6] = test system: lung cancer cells A427; assay: 3D model proliferation inhibitory activity test against lung cancer cells A427 (CellTiter-3D-Glo); type: cell-based; details: Homo sapiens, A-427, low-adhesion 96-well U-bottom plate
Experimental: as §1, with “A427” for “SW480”, “MEM” for “DMEM”

Q: Which results are given for `C=CCNC(=O)c1cc(Cc2ccnc(NS(=O)(=O)NC)c2F)c(F)c(F)c1Nc1ccc(I)cc1F` [Compound 4-1, N-allyl-3,4-difluoro-5-((3-fluoro-2-((N-methylaminosulfonyl)amino)pyridin-4-yl)methyl)-2-((2-fluoro-4-iodophenyl)amino)benzamide]?
A: IC50 [1]: 0.89 nM; diets, weights and activities of the animals during the drug administration [2]: normal; Tumor inhibition rate [2]: +++ (tumor inhibition rate > 90%); inhibitory effects on the growth of subcutaneously transplanted tumors of pancreatic cancer MIA PaCa-2 cells in the nude mice [2]: significant inhibitory effects; IC50 [3]: < 20 nM; Tumor inhibition rate ([4]; SW480 subcutaneous xenograft, BALB/c nude mice): ++++ (tumor inhibition rate > 100%); inhibitory effect on the growth of subcutaneously transplanted tumors of colorectal cancer SW480 cells in the nude mice ([4]; result in words): significant inhibitory effect; bioavailability ([5]; both sexes, rat, plasma, single dose, intravenous and oral gavage, read-out: absolute bioavailability (F%)): > 65%; absorption and clearance rates ([5]; result in words): greater; IC50 [6]: 1.16 nM

Q: For `C=C[C@@H](C)NC(=O)c1cc(Cc2ccnc(NS(=O)(=O)NC)c2F)c(F)c(F)c1Nc1ccc(I)cc1F` [Compound 4-5, (R)-N-(but-3-en-2-yl)-3,4-difluoro-5-((3-fluoro-2-((N-methylaminosulfonyl)amino)pyridin-4-yl)methyl)-2-((2-fluoro-4-iodophenyl)amino)benzamide], which IC50 [3] is on record?
A: < 20 nM

Q: And the IC50 [6]?
A: 2.13 nM

Q: For `[2H]C([2H])(C=C)NC(=O)c1cc(Cc2ccnc(NS(=O)(=O)NC)c2F)c(F)c(F)c1Nc1ccc(I)cc1F` [Compound 4-7, N-(allyl-1,1-d2) -3,4-difluoro-5-((3-fluoro-2-((N-methylaminosulfonyl)amino)pyridin-4-yl)methyl)-2-((2-fluoro-4-iodophenyl)amino)benzamide], which IC50 [6] is on record?
A: 1.09 nM

Q: For `C=CCNC(=O)c1cc(Cc2ccnc(NS(=O)(=O)NCC)c2F)c(F)c(F)c1Nc1ccc(I)cc1F` [Compound 4-8, N-allyl-5-((2-((N-ethylaminosulfonyl)amino)-3-fluoropyridin-4-yl)methyl)-3,4-difluoro-2-((2-fluor o-4-iodophenyl)amino)benzamide], which IC50 [3] is on record?
A: < 20 nM

Q: What about the IC50 [6] of the same compound?
A: 2.88 nM

Q: With `[2H]C([2H])([2H])NS(=O)(=O)Nc1nccc(Cc2cc(C(=O)NCC=C)c(Nc3ccc(I)cc3F)c(F)c2F)c1F` [Compound 4-10, N-allyl-3,4-difluoro-5-((3-fluoro-2-((N-methyl-d3-aminosulfonyl)amino)pyridin-4-yl)methyl)-2-((2-fluoro-4-iodophenyl)amino)benzamide] as the compound, how does the IC50 [1] read?
A: 1.05 nM

Q: And the IC50 [3]?
A: < 20 nM

Q: What about the IC50 [6] of the same compound?
A: 0.89 nM

Q: With `C=CCNC(=O)c1cc(Cc2ccnc(NS(=O)(=O)NC)c2F)c(F)c(F)c1Nc1ccc(C=C)cc1F` [Compound 4-14, N-allyl-3,4-difluoro-5-((3-fluoro-2-((N-methylaminosulfonyl)amino)pyridin-4-yl)methyl)-2-((2-fluoro-4-vinylphenyl)amino)benzamide] as the compound, how does the IC50 [1] read?
A: 2.67 nM

Q: What about the IC50 [3] of the same compound?
A: < 20 nM

Q: For `C=CCONC(=O)c1cc(Cc2ccnc(NS(=O)(=O)NC)c2F)c(F)c(F)c1Nc1ccc(I)cc1F` [Compound 5-1, N-(allyloxy)-3,4-difluoro-5-((3-fluoro-2-((N-methylaminosulfonyl)amino)pyridin-4-yl)methyl)-2-((2-fluoro-4-iodophenyl)amino)benzamide], which IC50 [1] is on record?
A: 0.17 nM

Q: And the “diets, weights and activities of the animals during the drug administration” value [2]?
A: normal

Q: What about the Tumor inhibition rate [2] of the same compound?
A: +++ (tumor inhibition rate > 90%)

Q: And the “inhibitory effects on the growth of subcutaneously transplanted tumors of pancreatic cancer MIA PaCa-2 cells in the nude mice” value [2]?
A: significant inhibitory effects

Q: And the IC50 [6]?
A: 0.53 nM

Q: Which IC50 [1] does the source give for `C=CCCONC(=O)c1cc(Cc2ccnc(NS(=O)(=O)NC)c2F)c(F)c(F)c1Nc1ccc(I)cc1F` [Compound 5-2, N-(but-3-en-1-yloxy)-3,4-difluoro-5-((3-fluoro-2-((N-methylaminosulfonyl)amino)pyridin-4-yl)methyl)-2-((2-fluoro-4-iodophenyl)amino)benzamide] here?
A: 0.63 nM
